{
  "source": "PubChem BioAssay (NCI)",
  "experiment_in_all_cases": "growth of human tumour cells (NCI), 48 h",
  "key": {"MCF7 breast": {"tested_on": "MCF7 breast"}, "RXF 393 renal": {"tested_on": "RXF 393 renal"}, "SNB-75 CNS": {"tested_on": "SNB-75 CNS"}, "COLO 205 colon": {"tested_on": "COLO 205 colon"}, "MALME-3M melanoma": {"tested_on": "MALME-3M melanoma"}, "ACHN renal": {"tested_on": "ACHN renal"}, "UACC-257 melanoma": {"tested_on": "UACC-257 melanoma"}, "DU-145 prostate": {"tested_on": "DU-145 prostate"}, "OVCAR-5 ovarian": {"tested_on": "OVCAR-5 ovarian"}, "NCI/ADR-RES ovarian": {"tested_on": "NCI/ADR-RES ovarian"}, "HOP-92 NSCLC": {"tested_on": "HOP-92 NSCLC"}, "K-562 leukemia": {"tested_on": "K-562 leukemia"}, "OVCAR-3 ovarian": {"tested_on": "OVCAR-3 ovarian"}, "HOP-62 NSCLC": {"tested_on": "HOP-62 NSCLC"}, "SN12C renal": {"tested_on": "SN12C renal"}, "NCI-H23 lung": {"tested_on": "NCI-H23 lung"}, "EKVX NSCLC": {"tested_on": "EKVX NSCLC"}, "NCI-H522 lung": {"tested_on": "NCI-H522 lung"}, "UACC-62 melanoma": {"tested_on": "UACC-62 melanoma"}, "SK-MEL-2 melanoma": {"tested_on": "SK-MEL-2 melanoma"}, "MDA-MB-435": {"tested_on": "MDA-MB-435"}, "HL-60(TB) leukemia": {"tested_on": "HL-60(TB) leukemia"}, "SW-620 colon": {"tested_on": "SW-620 colon"}, "SNB-19 CNS": {"tested_on": "SNB-19 CNS"}, "MOLT-4 leukemia": {"tested_on": "MOLT-4 leukemia"}, "RPMI-8226 leukemia": {"tested_on": "RPMI-8226 leukemia"}, "SK-MEL-28 melanoma": {"tested_on": "SK-MEL-28 melanoma"}, "SK-MEL-5 melanoma": {"tested_on": "SK-MEL-5 melanoma"}, "U251 CNS": {"tested_on": "U251 CNS"}},
  "note": "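Exposure lasted 48 hours, with cells grown in 96-well plates and compounds tested at five concentrations. GI50 = concentration required for 50% inhibition of growth. TGI denotes the concentration required for complete inhibition of growth.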",
  "data": [
    {"smiles": "O=C(NNc1nc2cc(F)c(F)cc2n2cccc12)c1ccncn1", "values": [
      {"measurement": "GI50", "setting": "MCF7 breast", "result": 0.235, "unit": "µM"},
      {"measurement": "TGI", "setting": "MCF7 breast", "result": 3.93, "unit": "µM"},
      {"measurement": "GI50", "setting": "RXF 393 renal", "result": 0.834, "unit": "µM"},
      {"measurement": "TGI", "setting": "RXF 393 renal", "result": 5.16, "unit": "µM"},
      {"measurement": "GI50", "setting": "SNB-75 CNS", "result": 0.365, "unit": "µM"},
      {"measurement": "TGI", "setting": "SNB-75 CNS", "result": 6.35, "unit": "µM"},
      {"measurement": "GI50", "setting": "COLO 205 colon", "result": 0.313, "unit": "µM"},
      {"measurement": "TGI", "setting": "COLO 205 colon", "result": 4.06, "unit": "µM"},
      {"measurement": "GI50", "setting": "MALME-3M melanoma", "result": 1.5, "unit": "µM"},
      {"measurement": "TGI", "setting": "MALME-3M melanoma", "result": 6.77, "unit": "µM"},
      {"measurement": "GI50", "setting": "ACHN renal", "result": 0.187, "unit": "µM"},
      {"measurement": "TGI", "setting": "ACHN renal", "result": 3.93, "unit": "µM"},
      {"measurement": "GI50", "setting": "UACC-257 melanoma", "result": 0.926, "unit": "µM"},
      {"measurement": "TGI", "setting": "UACC-257 melanoma", "result": 5.88, "unit": "µM"},
      {"measurement": "GI50", "setting": "DU-145 prostate", "result": 0.4, "unit": "µM"},
      {"measurement": "TGI", "setting": "DU-145 prostate", "result": 18.2, "unit": "µM"},
      {"measurement": "GI50", "setting": "OVCAR-5 ovarian", "result": 1.19, "unit": "µM"},
      {"measurement": "TGI", "setting": "OVCAR-5 ovarian", "result": 11.4, "unit": "µM"},
      {"measurement": "GI50", "setting": "NCI/ADR-RES ovarian", "result": 0.225, "unit": "µM"},
      {"measurement": "TGI", "setting": "NCI/ADR-RES ovarian", "result": 6.33, "unit": "µM"},
      {"measurement": "GI50", "setting": "HOP-92 NSCLC", "result": 0.697, "unit": "µM"},
      {"measurement": "TGI", "setting": "HOP-92 NSCLC", "result": 6.38, "unit": "µM"},
      {"measurement": "GI50", "setting": "K-562 leukemia", "result": 0.173, "unit": "µM"},
      {"measurement": "TGI", "setting": "K-562 leukemia", "result": "> 30", "unit": "µM"},
      {"measurement": "GI50", "setting": "OVCAR-3 ovarian", "result": 0.301, "unit": "µM"},
      {"measurement": "TGI", "setting": "OVCAR-3 ovarian", "result": 5.16, "unit": "µM"},
      {"measurement": "GI50", "setting": "HOP-62 NSCLC", "result": 0.199, "unit": "µM"},
      {"measurement": "TGI", "setting": "HOP-62 NSCLC", "result": 6.66, "unit": "µM"},
      {"measurement": "GI50", "setting": "SN12C renal", "result": 0.678, "unit": "µM"},
      {"measurement": "TGI", "setting": "SN12C renal", "result": 9.34, "unit": "µM"},
      {"measurement": "GI50", "setting": "NCI-H23 lung", "result": 1.26, "unit": "µM"},
      {"measurement": "TGI", "setting": "NCI-H23 lung", "result": 11.5, "unit": "µM"},
      {"measurement": "GI50", "setting": "EKVX NSCLC", "result": 0.255, "unit": "µM"},
      {"measurement": "TGI", "setting": "EKVX NSCLC", "result": 4.93, "unit": "µM"},
      {"measurement": "GI50", "setting": "NCI-H522 lung", "result": 0.803, "unit": "µM"},
      {"measurement": "TGI", "setting": "NCI-H522 lung", "result": 11.6, "unit": "µM"},
      {"measurement": "GI50", "setting": "UACC-62 melanoma", "result": 0.333, "unit": "µM"},
      {"measurement": "TGI", "setting": "UACC-62 melanoma", "result": 5.14, "unit": "µM"},
      {"measurement": "GI50", "setting": "SK-MEL-2 melanoma", "result": 3.52, "unit": "µM"},
      {"measurement": "TGI", "setting": "SK-MEL-2 melanoma", "result": 11.5, "unit": "µM"},
      {"measurement": "GI50", "setting": "MDA-MB-435", "result": 1.12, "unit": "µM"},
      {"measurement": "TGI", "setting": "MDA-MB-435", "result": 6.96, "unit": "µM"},
      {"measurement": "GI50", "setting": "HL-60(TB) leukemia", "result": 0.39, "unit": "µM"},
      {"measurement": "TGI", "setting": "HL-60(TB) leukemia", "result": "> 14.8", "unit": "µM"},
      {"measurement": "GI50", "setting": "SW-620 colon", "result": 0.313, "unit": "µM"},
      {"measurement": "TGI", "setting": "SW-620 colon", "result": 12.2, "unit": "µM"},
      {"measurement": "GI50", "setting": "SNB-19 CNS", "result": 0.417, "unit": "µM"},
      {"measurement": "TGI", "setting": "SNB-19 CNS", "result": 10.6, "unit": "µM"},
      {"measurement": "GI50", "setting": "MOLT-4 leukemia", "result": 0.179, "unit": "µM"},
      {"measurement": "TGI", "setting": "MOLT-4 leukemia", "result": "> 30", "unit": "µM"},
      {"measurement": "GI50", "setting": "RPMI-8226 leukemia", "result": 0.571, "unit": "µM"},
      {"measurement": "TGI", "setting": "RPMI-8226 leukemia", "result": "> 20.9", "unit": "µM"},
      {"measurement": "GI50", "setting": "SK-MEL-28 melanoma", "result": 0.771, "unit": "µM"},
      {"measurement": "TGI", "setting": "SK-MEL-28 melanoma", "result": 6.35, "unit": "µM"},
      {"measurement": "GI50", "setting": "SK-MEL-5 melanoma", "result": 0.745, "unit": "µM"},
      {"measurement": "TGI", "setting": "SK-MEL-5 melanoma", "result": 5.12, "unit": "µM"},
      {"measurement": "GI50", "setting": "U251 CNS", "result": 0.182, "unit": "µM"},
      {"measurement": "TGI", "setting": "U251 CNS", "result": 7.02, "unit": "µM"}
    ]}
  ]
}
